Measurements reported in patent publication US8026222B2, “Methods of use of glycomimetics with replacements for hexoses and n-acetyl hexosamines” (GlycoMimetics, Inc., priority 2007, dated 2011).

Tested on: human umbilical vein endothelial cells (HUVECS)
Experiment: neutrophil rolling on endothelial cell monolayers under flow conditions (rolling index)
Type: cell-based
Conditions: HUVEC monolayers incubated in glycated serum protein for 4 hours, perfused with human neutrophils (FIG. 18, FIG. 19)
Experimental: Monolayers of human umbilical vein endothelial cells (HUVECS) were incubated in glycated serum proteins (FIG. 18, glycated albumin, Gly-HSA or FIG. 19, glycated hemoglobin, Gly-Hb) for 4 hours. Monolayers were then inserted into a flow chamber and the chamber was perfused with human neutrophils (10^6 cell/ml) at a flow rate corresponding to a wall shear stress of 0.9 dynes/cm^2. Digital images were acquired and analyzed to determine the rolling index (RI) which is a measure of the degree of neutrophil rolling on the endothelial cell monolayer.

glycated hemoglobin: glycated serum protein used to stimulate endothelial cells
increase in neutrophil rolling (rolling index): ~2.8 fold
